Consider 25 compounds from PubChem BioAssay AID844 (SRMLSC, 2007).

Activity calls are given as the source filed them. The rule behind the calls is not given here.

The assay deals with MRP1 cells, doxorubicin viability shift, 10 uM compound. Nature of the assay: viability protection against doxorubicin, MRP-1 line – cell-based, doxorubicin EC50 shift, dose response (AID 844). To be noted: for EC50: measured here: doxorubicin EC50 with compound.

In the case of `O=C(Nc1ccn(Cc2ccccc2F)n1)c1ccc(COc2cc(Cl)ccc2Cl)o1`, the fold increase in Dox EC50 is 0.91 (inactive) and the EC50 (commonly the concentration at which the effect is half-maximal) was found to be 4.94 µM.
On the same counts, the results for `O=C(CSc1nnc(-c2ccccc2)n1-c1ccc(Cl)cc1)N/N=C/c1ccco1` are 0.53 (inactive) and 2.84 µM.
For the compound `CCOC(=O)C1=C(C)N=C2SC(CC)C(=O)N2C1c1cccc(F)c1` (stereo not given), the fold increase in Dox EC50 was 1.14 (inactive) and the EC50 is 6.14 µM.
Regarding `Cc1ccc(C(c2sc3ncnn3c2O)N2CC(C)CC(C)C2)cc1` (stereo not given), the fold increase in Dox EC50 is 0.72 (inactive) and the EC50 came out at 3.89 µM.
On the same counts, the results for `Cc1cccc(OCc2nc(-c3nonc3N)no2)c1C` are 0.78 (inactive) and 4.22 µM.
Regarding `O=C(NCCN1C(=O)S/C(=C/c2ccccc2)C1=O)C1CCCN1C(=O)c1cccs1` (stereo not given), the fold increase in Dox EC50 was 0.61 (inactive) and the EC50 was found to be 3.3 µM.
On the same counts, the results for `CCc1nnc(NC(=O)C2CCCN2S(=O)(=O)c2ccc(C)cc2)s1` (stereo not given) are 1.04 (inactive) and 5.6 µM.
On the same counts, the results for `COc1ccc(-c2nn(-c3ccccc3)cc2C(=O)Nc2nc(CC(C)=O)ns2)cc1` are 0.99 (inactive) and 5.32 µM.
As to `Clc1ccc(CSc2ncn[nH]2)cc1`, the fold increase in Dox EC50 was 1.03 (inactive) and the EC50 was determined as 5.54 µM.
`O=C1Nc2ccccc2CCC1Sc1nnc(-c2ccc(Cl)cc2)s1` (stereo not given): the fold increase in Dox EC50 is 1.32 (inactive) and the EC50 came to 7.13 µM.
As for `O=C(O)CSC1c2ccccc2C(=O)N1Cc1ccccc1` (stereo not given), the fold increase in Dox EC50 was 0.82 (inactive) and the 50% effective concentration (EC50) stood at 4.42 µM.
As to `CC(=O)c1ccc(N2CCN(c3ccc(C(F)(F)F)cn3)CC2)cc1`, the fold increase in Dox EC50 was 0.56 (inactive) and the EC50 is 3 µM.
On the same counts, the results for `CCCCOC(=O)Nc1ccc(C(C)C)cc1` are 0.78 (inactive) and 4.21 µM.
`COC(=O)C(CC(C)C)NC(=O)CSc1nc(-c2ccccc2)c(C#N)c(=O)[nH]1` (stereo not given): the fold increase in Dox EC50 is 1.85 and the EC50 was found to be 10 µM.
Consider `CCc1nnc(NC(=O)c2ccc(COc3ccc(C)cc3)o2)s1`, for which the fold increase in Dox EC50 was 1.33 (inactive) and the EC50 turned out to be 7.18 µM.
Regarding `CCc1nnc(NC(=O)CCC(=O)N2CCN(CCOc3ccc(C)cc3)CC2)s1`, the fold increase in Dox EC50 is 1.24 (inactive) and the EC50 worked out at 6.7 µM.
As for `Cc1nc(C)c(C(=O)NNS(=O)(=O)c2ccccc2)s1`, the fold increase in Dox EC50 was 0.83 (inactive) and the EC50 was 4.48 µM.
On the same counts, the results for `COc1ccc(C(=O)Nc2ccc(S(=O)(=O)Nc3nccnc3OC)cc2)cc1` are 1.12 (inactive) and 6.04 µM.
With `CCOC(=O)c1sc(-c2ccc(F)cc2)cc1NC(=O)Nc1ccccc1OC`, the fold increase in Dox EC50 is 0.83 (inactive) and the EC50 came to 4.5 µM.
As to `Brc1ccc(CSc2ncn[nH]2)cc1`, the fold increase in Dox EC50 was 1 (inactive) and the EC50 was found to be 5.39 µM.
Regarding `Cc1cc(C)cc(NC(=O)c2oc3ccccc3c2COc2ccccc2)c1`, the fold increase in Dox EC50 was 0.88 (inactive) and the EC50 turned out to be 4.78 µM.
Take `CC(NC(=O)C12CC3CC(CC(C3)C1)C2)c1ccc2c(c1)OCCO2` (stereo not given): the fold increase in Dox EC50 was 1.06 (inactive) and the EC50 came out at 5.7 µM.
`Cc1ccsc1CNn1cnnc1SCc1ccc(Cl)cc1`: the fold increase in Dox EC50 is 0.78 (inactive) and the EC50 amounted to 4.22 µM.
With `COc1ccc(OCc2nc(C#N)c(N3CCN(c4ccc(OC)cc4)CC3)o2)cc1`, the fold increase in Dox EC50 was 0.76 (inactive) and the EC50 came to 4.08 µM.
In the case of `O=C1CCCC(O)=C1N=Nc1ccc2c(c1)OCO2`, the fold increase in Dox EC50 was 1.17 (inactive) and the EC50 was 6.29 µM.
